Columns and labels:
[1] = target: RORγ receptor (B-RORγ LBD) (Homo sapiens (Human), UniProt P51449); assay: Inhibitory activity on RORγ receptor in vitro by fluorescence resonance energy transfer (FRET); type: biochemical; details: average of at least two independent tests
Protocol: The inhibitory activity of compounds on RORγ receptor was determined by fluorescence resonance energy transfer (FRET) experiments. The inhibitory activity was expressed by half-inhibitory concentration (IC50).
1. Preparation of RORγ Buffer Solution
10 mL of DTT and 100 mL buffer solution were gently mixed together and ready to use.
2. Preparation of Compound Solution
(§1) 3. Preparation of Protein Mixture a. 40 nM B-RORγ LBD solution and 20 nM SA-APC solution were gently mixed together. The reaction mixture was incubated for 15 minutes at room temperature. Then 400 nM Biotin was added to the described above mixture. After gently mixed together, the resulting mixture was incubated for 10 minutes at room temperature. […]
as §1, with “b.” for “3. Preparation of Protein Mixture a.”, “Bioin-SRC1” for “B-RORγ LBD”, “10” for “20”, “SA-eu” for “SA-APC”, “together, and the” for “together. The”, “200” for “400”
d. A mixture of 0.1 μM alternative agonist
N-(2-chloro-6-fluorophenyl)-N-((20-methoxy-[1,10-biphenylyl]-4-substituted)methyl)benzenesulfonamide, 25 μL B-RORγ LBD/SA-APC and Bioin-SRC1/SA-eu mixture solution with test compound were added to one of the well of a 384-well plate, then they were centrifuged for 1 minute at 1000 rpm, and incubated at room temperature for 1 hour. The values were read on the Envision microplate detector and IC50 was calculated.

[2] = tested on: Mouse Th17 cell differentiation; assay: Inhibition of mouse Th17 cell differentiation (IL-17 by intracellular staining and flow cytometry); type: cell-based; details: compound at 0.3 μM, mouse spleen CD4+ T cells, 96 hours
Protocol: Experimental method: Mouse spleen CD4^+ T cells were isolated and differentiated into Th17 cells. CD4^+ T cells were cultured in the environment of anti-CD3 (0.25 μg/mL), anti-CD28 (1 μg/mL), anti-IL4 (2 μg/mL), anti-IFN-γ (2 μg/mL), TGF-β (5 ng/mL), and IL6 (20 ng/mL), and then the test compound was added. After 96 hours, the differentiation efficiency of Th17 was analyzed. Before collection of cells, PMA at 50 ng/mL and ionomycin at 500 ng/mL were added for stimulation for 4 hours, and the ratio of IL-17 was detected by intracellular staining and flow cytometry. At the same time, we used Live/Dead Cell Dye (Invitrogen) staining method to analyze the cell survival rate, to judge whether the drug had toxicity to cells, and determine the inhibition rate of the compound at a concentration of 0.3 μM on IL-17 differentiation by Th 17 cells.

Chain of RORγ receptor (B-RORγ LBD) (P51449 269-508): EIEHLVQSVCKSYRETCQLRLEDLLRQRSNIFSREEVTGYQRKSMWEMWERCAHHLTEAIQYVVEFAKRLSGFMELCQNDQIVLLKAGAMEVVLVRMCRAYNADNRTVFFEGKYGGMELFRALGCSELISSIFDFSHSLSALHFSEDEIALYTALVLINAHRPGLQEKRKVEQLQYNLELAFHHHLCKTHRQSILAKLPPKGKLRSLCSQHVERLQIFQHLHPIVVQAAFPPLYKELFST

| SMILES | IC50 [1] [µM] | inhibition at 0.3 µM [2] [%] |
| --- | --- | --- |
| O=C(O)Cc1ccc(CNC(=O)Nc2ccc(-c3ccccc3)cc2)cc1 [Example 1-23, 2-(4-((3-([1,1′-biphenyl]-4-yl)ureido)methyl)phenyl)acetic acid] | 5 to 50 | 0 to 40 |
| CCS(=O)(=O)c1ccc(CNC(=O)Nc2ccc(-c3ccccc3OC(F)(F)F)c(Cl)c2)cc1 [Example 1-3, 1-(2-chloro-2′-(trifluoromethoxy)-[1,1′-biphenyl]-4-yl)-3-(4-(ethylsulfonyl)benzyl)urea] | 0.5 to 5 | 40 to 70 |
| NS(=O)(=O)c1ccc(CNC(=O)Nc2cc(Cl)c(-c3ccccc3OC(F)(F)F)c(Cl)c2)cc1 [Example 1-6, 4-((3-(2,6-dichloro-2′-(trifluoromethoxy)-[1,1′-biphenyl]-4-yl)ureido)methyl)benzenesulfonamide] | < 0.5 | 40 to 70 |
| CCS(=O)(=O)c1ccc(CNC(=O)Nc2ccc(-c3ccccc3)cc2)cc1 [Example 1-2, 1-([1,1′-biphenyl]-4-yl)-3-(4-(ethylsulfonyl)benzyl)urea] | 5 to 50 | 0 to 40 |
| N#Cc1cc(NC(=O)NCc2ccc(CC(=O)O)cc2)cc(Cl)c1-c1ccccc1OC(F)(F)F [Example 1-16, 2-(4-((3-(2-chloro-6-cyano-2′-(trifluoromethoxy)-[1,1′-biphenyl]-4-yl)ureido)methyl)phenyl)acetic acid] | < 0.5 | 0 to 40 |

From patent publication US10647665B2, “Biaryl urea derivative or salt thereof and preparation process and use for the same” (Fudan University, priority 2016, dated 2020)
